Experimental data taken from PubChem BioAssay (NCI).
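Protocol summary: plate cells (96-well), add compound at 5 concentrations, incubate 48 h, interpolate endpoints linearly. TGI is the concentration that stops growth completely.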

Key:
Experiment in all cases: NCI tumour cell line growth inhibition, 48 h
DLD-1 colon = test system: DLD-1 colon
DMS 114 small cell lung = test system: DMS 114 small cell lung
HOP-18 NSCLC = test system: HOP-18 NSCLC
KM20L2 colon = test system: KM20L2 colon
M19-MEL melanoma = test system: M19-MEL melanoma
XF 498 CNS = test system: XF 498 CNS
RXF-631 renal = test system: RXF-631 renal
MCF7 breast = test system: MCF7 breast
MDA-N = test system: MDA-N
P388 leukemia = test system: P388 leukemia
P388/ADR leukemia = test system: P388/ADR leukemia
SN12K1 renal = test system: SN12K1 renal

| SMILES | TGI (DLD-1 colon) | TGI (DMS 114 small cell lung) | TGI (HOP-18 NSCLC) | TGI (KM20L2 colon) | TGI (M19-MEL melanoma) | TGI (XF 498 CNS) | TGI (RXF-631 renal) | TGI (MCF7 breast) | TGI (MDA-N) | TGI (P388 leukemia) | TGI (P388/ADR leukemia) | TGI (SN12K1 renal) |
| --- | --- | --- | --- | --- | --- | --- | --- | --- | --- | --- | --- | --- |
| CN(/N=C/c1cccc2cccnc12)c1ccc([N+](=O)[O-])cc1 | > 100 µM | > 100 µM | > 100 µM | > 100 µM | > 100 µM | > 100 µM | – | – | – | – | – | – |
| O/N=C1/C(=C/c2ccc(Oc3ccccc3)cc2)CCCC1C(NO)c1ccc(Oc2ccccc2)cc1 (configuration not stated) | > 100 µM | > 100 µM | > 100 µM | 26.7 µM | > 100 µM | > 100 µM | > 100 µM | – | – | – | – | – |
| COc1ccc(Cc2cc3c(cc2OCC(=O)O)OCO3)cc1 | > 100 µM | > 100 µM | – | > 100 µM | > 100 µM | – | > 100 µM | – | – | – | – | – |
| CCOC(=O)C(=O)Nc1ccc(Cl)cc1C | > 100 µM | > 100 µM | > 100 µM | > 100 µM | > 100 µM | > 100 µM | – | – | – | – | – | – |
| Cc1nc(-c2ccccc2)cc2c1c(=O)oc1ccccc12 | > 100 µM | > 100 µM | > 100 µM | > 100 µM | – | – | > 100 µM | – | – | – | – | – |
| O=C1c2ccccc2NC1(c1ccccc1)c1c(-c2ccccc2)[nH]c2ccccc12 (configuration not stated) | > 100 µM | > 100 µM | > 100 µM | > 100 µM | > 100 µM | 99 µM | > 100 µM | – | – | – | – | – |
| CN1C(c2ccccc2)CS(=O)(=O)CS1(=O)=O (configuration not stated) | > 100 µM | > 100 µM | > 100 µM | > 100 µM | > 100 µM | > 100 µM | > 100 µM | – | – | – | – | – |
| Cc1ccc(NC(=O)C(=O)CC(=O)C2CCOC2=O)c(C)c1 (configuration not stated) | > 100 µM | > 100 µM | > 100 µM | > 100 µM | – | > 100 µM | > 100 µM | – | – | – | – | – |
| CC1=C(C(=O)NCc2ccccc2)C(c2ccc([N+](=O)[O-])cc2)C(C(=O)NCc2ccccc2)=C(C)N1 | > 100 µM | > 100 µM | > 100 µM | 54 µM | 52.7 µM | > 100 µM | – | – | – | – | – | – |
| COc1cc2c(cc1OC)C(OC)N(C)c1c-2ccc2cc3c(cc12)OCO3 (configuration not stated) | 61.2 µM | 12.3 µM | 68.5 µM | 6.5 µM | 4.08 µM | 2.95 µM | – | 12.6 µM | > 75 µM | 4.98 µM | 13 µM | 2.05 µM |
| O=C(Cc1nc2ccccc2s1)C(=O)Nc1cccc(Cl)c1 | > 100 µM | > 100 µM | – | > 100 µM | > 100 µM | > 100 µM | > 100 µM | – | – | – | – | – |
| Cc1ccccc1C(=O)Oc1ccc(O)cc1 | > 100 µM | – | > 100 µM | > 100 µM | > 100 µM | – | > 100 µM | – | – | – | – | – |
| O=C(O)/C(Cl)=C(\Cl)C(=O)NC1C2CC3CC(C2)CC1C3 (configuration not stated) | > 100 µM | > 100 µM | > 100 µM | > 100 µM | > 100 µM | > 100 µM | > 100 µM | – | – | – | – | – |
| COc1cc(O)c2c(c1)C(=O)C=C(Cl)C2=O | > 100 µM | > 100 µM | > 100 µM | > 100 µM | > 100 µM | > 100 µM | > 100 µM | – | – | – | – | – |
| C[C@@H](CN1CC(=O)NC(=O)C1)N1CC(=O)NC(=O)C1 | 1090 µM | 441 µM | 1180 µM | 1290 µM | 998 µM | 201 µM | – | 498 µM | 680 µM | 2500 µM | 2180 µM | 541 µM |
